{
  "source": "ChEMBL document CHEMBL5465560",
  "about": "“Selectivity Literature for EUbOPEN Chemogenomic Library” (2024)",
  "key": {"[1]": {"biological_target": "T1, Mitogen-activated protein kinase 13 (Homo sapiens) (UniProt O15264)", "T1 sequence (whole entry)": "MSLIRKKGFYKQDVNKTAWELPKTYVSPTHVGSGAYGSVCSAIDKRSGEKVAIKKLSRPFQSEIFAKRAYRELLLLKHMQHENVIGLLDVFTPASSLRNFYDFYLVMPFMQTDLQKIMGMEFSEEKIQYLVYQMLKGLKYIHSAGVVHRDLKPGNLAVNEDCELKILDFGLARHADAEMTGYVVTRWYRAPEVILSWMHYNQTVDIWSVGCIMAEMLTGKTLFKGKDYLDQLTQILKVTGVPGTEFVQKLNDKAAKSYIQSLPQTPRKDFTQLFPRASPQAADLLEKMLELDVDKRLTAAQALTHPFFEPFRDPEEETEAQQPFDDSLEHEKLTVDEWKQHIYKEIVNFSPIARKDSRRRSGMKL", "assay": "Selectivity interaction (KinomeScan (DiscoverX)) EUB0000655a MAPK13", "conditions": "at 10 µM"}, "[2]": {"biological_target": "T2, Serine/threonine-protein kinase TNNI3K (Homo sapiens) (UniProt Q59H18)", "T2 sequence (whole entry)": "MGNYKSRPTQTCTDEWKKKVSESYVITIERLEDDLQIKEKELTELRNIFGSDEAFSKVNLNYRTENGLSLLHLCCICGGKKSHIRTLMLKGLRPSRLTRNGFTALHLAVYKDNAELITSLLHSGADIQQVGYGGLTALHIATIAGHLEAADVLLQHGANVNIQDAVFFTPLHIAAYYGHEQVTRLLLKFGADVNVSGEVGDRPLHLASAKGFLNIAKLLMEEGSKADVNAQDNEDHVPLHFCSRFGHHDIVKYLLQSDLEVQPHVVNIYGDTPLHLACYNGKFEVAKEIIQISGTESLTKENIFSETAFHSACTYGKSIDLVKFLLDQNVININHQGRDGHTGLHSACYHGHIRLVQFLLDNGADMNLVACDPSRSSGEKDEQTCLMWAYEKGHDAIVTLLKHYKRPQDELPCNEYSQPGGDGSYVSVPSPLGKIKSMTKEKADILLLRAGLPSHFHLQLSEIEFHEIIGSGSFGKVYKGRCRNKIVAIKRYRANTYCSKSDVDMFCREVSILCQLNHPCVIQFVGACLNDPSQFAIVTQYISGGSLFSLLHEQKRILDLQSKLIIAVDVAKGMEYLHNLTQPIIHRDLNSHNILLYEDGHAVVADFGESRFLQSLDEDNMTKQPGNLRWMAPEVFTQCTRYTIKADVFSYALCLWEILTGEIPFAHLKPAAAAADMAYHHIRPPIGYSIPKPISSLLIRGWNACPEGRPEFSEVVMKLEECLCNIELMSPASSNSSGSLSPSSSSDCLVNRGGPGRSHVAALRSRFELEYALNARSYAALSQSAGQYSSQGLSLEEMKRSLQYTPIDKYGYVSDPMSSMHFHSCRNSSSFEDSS", "conditions": "at 10 µM"}, "[3]": {"biological_target": "Proto-oncogene tyrosine-protein kinase Src (Homo sapiens, UniProt P12931)", "sequence (P12931 2-536 limits assumed)": "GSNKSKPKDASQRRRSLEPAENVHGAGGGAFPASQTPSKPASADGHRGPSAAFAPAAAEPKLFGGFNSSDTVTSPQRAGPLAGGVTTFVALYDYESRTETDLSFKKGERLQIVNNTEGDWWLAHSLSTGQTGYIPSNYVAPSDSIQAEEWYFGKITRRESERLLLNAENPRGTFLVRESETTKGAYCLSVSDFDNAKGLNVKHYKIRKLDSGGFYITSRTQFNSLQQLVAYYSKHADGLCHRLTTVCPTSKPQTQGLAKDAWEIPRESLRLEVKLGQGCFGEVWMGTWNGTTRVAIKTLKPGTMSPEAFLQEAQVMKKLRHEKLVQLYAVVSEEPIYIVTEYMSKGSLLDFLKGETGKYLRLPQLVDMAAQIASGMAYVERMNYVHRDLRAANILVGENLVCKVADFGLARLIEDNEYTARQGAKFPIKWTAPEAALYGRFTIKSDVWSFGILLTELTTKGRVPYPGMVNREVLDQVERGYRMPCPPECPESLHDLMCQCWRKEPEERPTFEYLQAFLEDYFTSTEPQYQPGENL", "assay": "Selectivity interaction (SelectScreen profiling (Invitrogen)) EUB0000607a SRC", "conditions": "at 2 µM"}, "[4]": {"biological_target": "T3, Myosin-IIIb (Homo sapiens) (UniProt Q8WXR4)", "T3 sequence (whole entry)": "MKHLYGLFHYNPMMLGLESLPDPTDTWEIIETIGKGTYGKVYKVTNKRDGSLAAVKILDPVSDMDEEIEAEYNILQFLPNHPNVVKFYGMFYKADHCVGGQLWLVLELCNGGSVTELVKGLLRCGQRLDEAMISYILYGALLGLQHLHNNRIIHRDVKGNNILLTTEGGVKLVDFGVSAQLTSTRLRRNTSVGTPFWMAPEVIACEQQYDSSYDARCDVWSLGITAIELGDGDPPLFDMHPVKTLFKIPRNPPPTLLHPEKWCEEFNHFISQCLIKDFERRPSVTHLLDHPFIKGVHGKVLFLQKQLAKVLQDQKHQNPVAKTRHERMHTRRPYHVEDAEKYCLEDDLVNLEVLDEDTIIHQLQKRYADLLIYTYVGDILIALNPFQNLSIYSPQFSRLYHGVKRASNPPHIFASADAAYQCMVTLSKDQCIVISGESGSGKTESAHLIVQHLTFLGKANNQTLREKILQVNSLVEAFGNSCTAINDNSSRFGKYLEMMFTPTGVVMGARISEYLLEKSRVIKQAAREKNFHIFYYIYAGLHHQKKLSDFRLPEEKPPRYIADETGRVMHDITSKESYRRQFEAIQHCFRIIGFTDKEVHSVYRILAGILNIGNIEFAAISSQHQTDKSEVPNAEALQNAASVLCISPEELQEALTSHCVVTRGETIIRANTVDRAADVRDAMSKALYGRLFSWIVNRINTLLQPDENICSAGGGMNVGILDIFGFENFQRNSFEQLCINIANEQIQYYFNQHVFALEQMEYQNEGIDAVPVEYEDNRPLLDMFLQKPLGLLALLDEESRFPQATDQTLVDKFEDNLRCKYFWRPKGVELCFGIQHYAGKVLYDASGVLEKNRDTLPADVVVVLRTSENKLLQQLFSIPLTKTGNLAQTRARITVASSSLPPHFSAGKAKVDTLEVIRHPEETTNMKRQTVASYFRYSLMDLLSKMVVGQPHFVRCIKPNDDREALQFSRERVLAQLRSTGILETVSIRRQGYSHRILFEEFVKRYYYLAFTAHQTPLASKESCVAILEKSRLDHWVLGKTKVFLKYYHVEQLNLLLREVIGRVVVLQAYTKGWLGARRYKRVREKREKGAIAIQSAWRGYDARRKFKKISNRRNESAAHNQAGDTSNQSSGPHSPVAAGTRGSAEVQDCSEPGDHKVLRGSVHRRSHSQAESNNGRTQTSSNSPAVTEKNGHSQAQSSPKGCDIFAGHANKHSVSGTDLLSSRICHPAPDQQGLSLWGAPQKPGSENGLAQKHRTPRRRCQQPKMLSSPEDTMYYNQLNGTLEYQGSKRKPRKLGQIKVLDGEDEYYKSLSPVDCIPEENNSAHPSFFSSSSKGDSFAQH", "assay": "Selectivity interaction (KinomeScan (DiscoverX)) EUB0000618a MYO3B", "conditions": "at 10 µM"}},
  "data": [
    {"smiles": "CN(C)CCOc1ccc(-c2nc(-c3ccncc3)c(-c3ccc4c(c3)CC/C4=N\\O)[nH]2)cc1", "values": [
      {"measurement": "% of control", "setting": "[1]", "result": 87, "unit": "%"}
    ]},
    {"smiles": "Cc1cc([C@@H](C)Nc2ccccc2C(=O)O)c2nc(N3CCOCC3)cc(=O)n2c1", "note": "[AZD-6482]", "values": [
      {"measurement": "% of control", "setting": "[2]", "result": 88, "unit": "%"}
    ]},
    {"smiles": "CNC(=O)Nc1ccc(-c2nc(N3CC4CCC(C3)O4)c3cnn(C4CCC5(CC4)OCCO5)c3n2)cc1", "values": [
      {"measurement": "% of inhibition", "setting": "[3]", "result": 7, "unit": "%"}
    ]},
    {"smiles": "O[C@H]1CC[C@H](Nc2ncc3nc(Nc4c(F)cc(F)cc4F)n([C@H]4CCOC4)c3n2)CC1", "values": [
      {"measurement": "% of control", "setting": "[4]", "result": 95, "unit": "%"}
    ]}
  ]
}
